From PubChem BioAssay (NCI)
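Cells were grown in 96-well plates and exposed to each compound for 48 hours at five concentrations; endpoints were interpolated linearly between bracketing concentrations, or set to the highest concentration if not reached. TGI denotes the concentration required for complete inhibition of growth.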

Assays:
Assay in all cases: DTP human tumour cell line panel, 48 h
DMS 114 small cell lung = test system: DMS 114 small cell lung
SN12K1 renal = test system: SN12K1 renal
M19-MEL melanoma = test system: M19-MEL melanoma
DLD-1 colon = test system: DLD-1 colon

Measured: TGI

CCOC(=O)c1cc(Cl)ccc1OC(N)=O
> 100 µM: all assays above
